Literature values, collected in patent publication US6457474B1, “Method of treating chest pain” (priority 1997, dated 2002).

Columns and labels:
[1] = after the tablet has dissolved under the tongue

SMILES: O=[N+]([O-])OCC(CO[N+](=O)[O-])O[N+](=O)[O-] [nitroglycerin]
- time for the angina attack to go away [1]: approximately five
- systemic bioavailability (after oral administration): rather low
- plasma levels (high oral doses): erratic
